Structures are written as SMILES.

The test system of data set [1] is striatal medium spiny neurons (MSNs). The experiment in a line: HD brain slice assay (mHTT-Q73 transfected corticostriatal explants). In kind it is cell-based. To be noted: rat corticostriatal brain slice explants, YFP + mHTT-Q73, 4 days. The procedure: Brain slice explants were prepared and transfected as previously described (Reinhart et al., 2011). Briefly, brains were taken from postnatal day 10 CD Sprague-Dawley rat pups and cut into 250 μm coronal slices on a vibratome (Vibratome Co., St. Louis, Mo.). Brain slices containing striatum and cortex were then placed in individual wells of 12-well plates atop culture medium set in 0.5% agarose and maintained at 32° C. under 5% CO2. Co-transfection with YFP and Htt exon-1 containing a 73 polyglutamine repeat was done using a biolistic device (Bio-Rad Helios Gene Gun, Hercules, Calif.). Positive controls were transfected with YFP only or treated with a combination of 50 μM KW-6002 (istradefylline) and 50 μM SP600125. Negative control brain slices were treated with 0.1% DMSO carrier only. Striatal medium spiny neurons (MSNs) expressing YFP were visualized under fluorescence microscopy and identified based on their location within brain slices and their characteristic morphology.
Having elucidated aspects of the biophysical mechanism of action of LOC14 binding to PDI, the next exploration concerned whether LOC14 would be a good candidate for in vivo studies. […] In the absence of LOC14, very few healthy MSNs remained, as assessed by the lack of normal sized and shaped cell bodies, absence of long primary dendrites, and lack of continuous expression of YFP throughout the cell (FIG. 10).

Another data set has as its target T1, PDIa (Homo sapiens, UniProt P07237).
T1 construct: made in house; host or cells: Escherichia coli BL21-Gold (DE3)
In words: Size-exclusion buffer dialysis for reversibility of binding (fluorescence). The conditions noted are these: PDIa 20 μM treated with LOC14 300 μM overnight, 10 kDa filter dialysis. On the procedure:
Prior to dialysis, fluorescence emission spectra were recorded from 315 nm-550 nm wavelength with excitation at 280 nm on a Tecan Infinite 200 microplate reader. Fluorescence readings were carried out in a 384-well low volume, black bottom plate. Each well contained 40 μl of either LOC14 (300 μM), PDIa (20 μM), or PDIa (20 μM) treated with LOC14 (300 μM) overnight. All samples were dissolved in buffer B (20 mM sodium phosphate buffer pH 7.8). After recording the initial fluorescence spectra, samples were then transferred to Amicon Ultra 10 kDa size exclusion filter spin columns for dialysis. […] This step was repeated three more times with fresh buffer B. 40 μl of the collected samples from the flow-through and the spin-column chamber were transferred to a new 384-well plate and the emission spectra recorded as described above.
To investigate the mode of binding further and to determine whether the binding was reversible or irreversible, the fluorescence of the LOC14-PDIa complex was analyzed before and after buffer dialysis. […] If LOC14 binds irreversibly to the protein, then the same fluorescence spectrum of the LOC14-PDIa complex would be seen before and after dialysis in the dialysis chamber and none in the buffer compartment, assuming the fluorescence of LOC14 was not dramatically altered upon binding. […]
Background: In gel filtration, larger molecules generally elute earlier.

Data set [2] is described as follows: Mouse plasma stability assay. In kind it is in vitro ADME. The conditions noted are these: compound 1.0 μM. The procedure: Test compound (1 μM) was incubated at 37° C. for up to 120 minutes in mouse plasma. At 0, 15, 30, 60, and 120 minute intervals an 100 μL aliquot was taken and quenched with 200 μL acetonitrile (ACN) containing internal standard. Following completion of the experimentation, the samples were analyzed by LC-MS/MS. The half-life (t1/2) was calculated using the following equation: t1/2=0.693/k, where, k is the elimination rate constant of test compounds obtained by fitting the data to the equation: C=initial×exp (−k×t). Results were reported as peak area ratios of analyte to internal standard.
The microsome stability assay, plasma stability assay, and plasma protein binding assay were each performed by Alliance Pharma, Inc. (Malvern, Pa.).

Data set [3] deals with T2, human catalytic PDI A1 a domain (PDIa) (Homo sapiens, UniProt P07237).
T2 construct: made in house; host or cells: Escherichia coli BL21-Gold (DE3)
In words: Isothermal titration calorimetry (ITC) binding to PDIa. To be noted: 400 μM LOC14 into 40 μM oxidized PDIa, compared to reduced PDIa. A general note: ITC needs no label: the signal is the heat of the interaction.

T2 sequence (P07237 with tags, fused parts or gaps): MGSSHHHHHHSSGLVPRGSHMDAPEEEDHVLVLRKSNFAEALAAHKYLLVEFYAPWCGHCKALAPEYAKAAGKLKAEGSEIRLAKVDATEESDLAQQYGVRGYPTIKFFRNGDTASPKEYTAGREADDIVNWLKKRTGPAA
T1 sequence (P07237 with tags, fused parts or gaps): as above

Consider `O=C(C1CC1)N1CCN(Cn2sc3ccccc3c2=O)CC1` [LOC14, 2-((4-(cyclopropanecarbonyl)piperazin-1-yl)methyl)benzo[d]isothiazol-3(2H)-one], for which the “rescue of MSNs from mutant huntingtin-induced neurodegeneration” value in data set [1] is on record as “rescued MSNs in a concentration-dependent manner”. Further, the “binding to PDIa reversible or irreversible” value at PDIa is listed as “reversible”. In data set [2], the “% Remaining after 2-hour incubation” value worked out at 49.9% and the “Elimination rate constant (k)” value amounted to 0.0049. Further, in data set [2] (read-out: Half-life (t1/2) (converted)), the half-life at 1 μM was 2.4 h. Further, the “binding affinity to oxidized PDIa” value in data set [3] was “loss in binding affinity”.

The record behind these values is patent US20180092908A1, “SMALL MOLECULE OXIDIZERS OF PDI AND THEIR USE” (THE TRUSTEES OF COLUMBIA UNIVERSITY IN THE CITY OF NEW YORK, priority 2015, published 2018).
